{
  "source": "patent US20030153575A1",
  "about": "“Tetracyclic diketopiperazine compounds as pdev inhibitors” (priority 2002, published 2003)",
  "key": {"[1]": {"biological_target": "human recombinant PDE5 (Homo sapiens, UniProt O76074)", "assay": "Inhibitory effect on cGMP-PDE (PDE5 IC50)", "type": "biochemical", "conditions": "in vitro, human recombinant PDE5, 0.15 μM 8-[H3]-cGMP, 30 min incubation", "method": "The compounds of structural formula (I) were tested for an ability to inhibit PDE5. The ability of a compound to inhibit PDE5 activity is related to the IC50 value for the compound, i.e., the concentration of inhibitor required for 50% inhibition of enzyme activity. The IC50 value for compounds of structural formula (I) were determined using recombinant human PDE5.\ncGMP-PDE activity of compounds of the present invention was measured using a one-step assay adapted from Wells et al., Biochim. Biophys. Acta, […], 430 (1975). The reaction medium contained 50 mM Tris-HCl, pH 7.5, 5 mM magnesium acetate, 250 μg/ml 5′-Nucleotidase, 1 mM EGTA, and 0.15 μM 8-[H^3]-cGMP. Unless otherwise indicated, the enzyme used was a human recombinant PDE5 (ICOS Corp., Bothell, Wash.).\nCompounds of the invention were dissolved in DMSO finally present at 2% in the assay."}},
  "note": "pIC50: −log10 of the molar value.",
  "data": [
    {"smiles": "CN1CC(=O)N2[C@H](c3ccc(O)c(O)c3)c3[nH]c4ccccc4c3C[C@@H]2C1=O", "note": "[Example 1, (6R,12aR)-6-(3,4-Dihydroxyphenyl)-2-methyl-2,3,6,7,12,12a-hexahydropyrazino[1′,2′:1,6]-pyrido[3,4-b]indole-1,4-dione]", "values": [
      {"measurement": "pIC50", "setting": "[1]", "result": 7.35},
      {"measurement": "melting point", "result": "250.5 to 256.6", "unit": "°C"}
    ]},
    {"smiles": "COc1cc([C@@H]2c3[nH]c4ccccc4c3C[C@@H]3C(=O)N(C)CC(=O)N23)ccc1O", "note": "[Example 2, (6R,12aR)-6-(4-Hydroxy-3-methoxyphenyl)-2-methyl-2,3,6,7,12,12a-hexahydropyrazino[1′,2′:1,6]-pyrido[3,4-b]indole-1,4-dione]", "values": [
      {"measurement": "pIC50", "setting": "[1]", "result": 6.64},
      {"measurement": "melting point", "result": "288.2 to 292.2", "unit": "°C"}
    ]}
  ]
}
